Results: patent EP4088722A1, “PHARMACEUTICAL COMPOSITIONS, USES THEREOF AND METHODS FOR TREATMENT OF GENETIC DISEASES CAUSED BY INTRONIC SPLICE-ACCEPTOR SITE MUTATIONS” (priority 2021, dated 2022)

What was measured:
[1] = tested on: AGA-luciferase minigene constructs (c.128-2A>G); experiment: AGA luciferase minigene splicing assay in AGU patient fibroblasts; assay type: cell-based, human; conditions: 24 h; for luciferase readout: increasing amounts; for luciferase activity: 7.5 mM
[2] = tested on: AGA minigene containing the splice variant (c.128-2A>G); experiment: AGA minigene luciferase splicing assay in AGA knockout HEK293T cells; conditions: for splicing of the AGA minigene / variant (summary statement): overall statement in the description, across the AGA assays
Experimental: HEK293T (human embryonic kidney cells) cells were cultured in Dulbecco's modified Eagle's medium (DMEM) with high glucose, 10% fetal calf serum (FCS), 1 % penicillin/streptomycin (all from Gibco, Thermo Fisher Scientific, Germany). […] Immortalized, hTERT-transformed normal human skin fibroblasts were used as control [(Banning, A.; et al. Identification of Small Molecule Compounds for Pharmacological Chaperone Therapy of Aspartylglucosaminuria. Sci Rep 2016, 6, 37583]. All fibroblasts were cultured in DMEM (high glucose), 10% FCS, 1 % penicillin/streptomycin, 1 % non-essential amino acids and 1 % sodium pyruvate. All cells were grown at 8% CO2 and 37°C.
For transient transfection, cells were seeded onto 12-well plates on the day before transfection. For transfections, 400 ng of expression plasmid DNA and 50 ng of pRL-TK Renilla luciferase control reporter vector (Promega) were transfected using MACSfectin™ (Miltenyi Biotec, Bergisch Gladbach, Germany) according to the manufacturer's protocol. Fibroblasts were transfected with Neon Transfection System (Invitrogen). The following day, the cells were transferred onto 24-well plates, treated with specific substances and harvested after 24 h of treatment in lysis juice for firefly and renilla luciferase assay (PJK GmbH, Kleinblittersdorf, Germany). Determination of firefly and renilla luciferase activity was performed with a Tecan infinite M200 plate reader using 20 µl of lysate and 85 µl of beetle or renilla juice (PJK) as reagents. Relative luciferase activity was calculated by dividing the firefly luciferase activity by the renilla luciferase activity.
This construct contains the splice acceptor site mutation -2A>G in intron 1. If exon 2 is spliced out, altered reading frame in exon 3 produces an early STOP codon and prevents the expression of luciferase. However, if all three exons are correctly spliced, the luciferase ORF is translated in-frame as a fusion protein with the AGA protein sequence coded by exons 1-3.

[3] = tested on: endogenous AGA mRNA with exon 2; assay type: cell-based, human; conditions: 24 h, patient fibroblasts
Experimental: (§1) Fibroblasts were seeded into 6-well plates and treated with the following compounds: caffeine, theophylline, theobromine, pentoxifylline, doxofylline(1-7.5 mM, solvent H2O; TCI, Eschborn, Germany), luteolin (10-50 µM, solvent DMSO; Biozol, Eching, Germany) or kinetin (10-100 µM, solvent DMSO; TCI, Eschborn,Germany) for 24 h (RNA) or 48 h (protein lysate). Cells were harvested in lysis buffer (50 mM Tris pH 7.4, 150 mM NaCl, 2 mM EDTA, 1% NP-40), supplemented with protease inhibitor cocktail (Sigma-Aldrich). Protein concentrations in the lysates were determined according to the Bradford method.
(§2) For qPCRs, total RNA was isolated with peqGOLD TriFast™ (VWR, Darmstadt, Germany) and included a DNAse step. Total RNA (1-3 µg) were reverse transcribed with 150 fmol oligo(dT) primers and M-MuLV reverse transcriptase (NEB, Frankfurt, Germany) in a total volume of 45 µL. Real-time quantitative PCRs were performed using the CFX Connect Real-Time PCR Detection System (Bio-Rad, Munich, Germany). Annealing temperature was 60°C for all primers. The reactions were done as duplicates with 0.8 µL cDNA in a total volume of 10 µL using iTaq-TMUniversal SYBR Green Supermix (Bio-Rad). PCR products were quantified with the ACt-method. For normalization, the mean of the reference genes B2M, Rpl13a, Ywhaz and TBP was used. Table 2. Sequences of primers used for the quantitative real-time PCR.

[4] = tested on: AGA minigene construct without luciferase (c.128-2A>G); experiment: cells; assay type: cell-based, human; conditions: 24 h; for fold induction at 7500 µM: Homo sapiens, HEK-293T, read-out: increase in the correctly spliced product (exons 2 and 3); for changes in the splicing (correctly spliced product): 7.5 mM, qRT-PCR
Experimental: as §2
RNA was isolated from the cells, reverse transcribed to cDNA, and a qRT-PCR with a fwd primer residing in exon 2 and a reverse primer in the plasmid vector (3'-untranslated region of the resulting RNA) was performed. Thus, amplification of a PCR product of 271 bp is only observed when both exons 2 and 3 are present in the mRNA.

AGA mRNA = experiment: qRT-PCR of AGA mRNA in control fibroblasts; assay type: cell-based, human; conditions: 7.5 mM caffeine, 24 h
Experimental: as §1, §2

AGA activity = AGA activity in patient fibroblasts, colorimetric Morgan-Elson assay with AADG as substrate; assay type: cell-based, human; conditions: 25 µM luteolin, 48 h
Experimental: as §1
In most experiments, AGA activity was measured fluorimetrically as described in Banning, A.; et al. Sci Rep 2016, 6, 37583. […] In short, 12.5 µl of cell lysate were mixed with 100 nmol AADG, 3.35 µl 0,5 M KH2PO4, pH8, and 0.9% NaCl to reach a total volume of 25 µl. […] The liberated N-acetylglucosamine was measured at 585 nm. […]
Due to these encouraging data, the AGA activity was measured in patient fibroblasts treated with 25 µM luteolin (Figure 10b). Since luteolin acts as a quencher in our standard fluorescence-based AGA activity measurement [Schoefer, L.; Braune, A., FEMS Microbiol Lett 2001, 204, 277-280, and our own observations], we used a colorimetric activity assay [Tikkanen, R.; et al., DNA Cell Biol 1995, 14, 305-312] that is less sensitive but not subject to quenching by luteolin.

[5] = 7.5 mM, 24 h, compared to untreated cells

In the case of `Cn1c(=O)c2c(ncn2C)n(C)c1=O` [caffeine, 1,3,7-trimethylxanthine], the luciferase readout [1] is reported as “significant, dose dependent increase in the luciferase readout”, the luciferase activity [2, 5] is reported as “highest increase” and the “endogenous AGA mRNA splicing products that contain exons 2 and 3” value ([3]; 7.5 mM caffeine) is reported as “significantly increased to a level that corresponds to the untreated control fibroblasts”. For the same compound, the fold induction at 7500 µM [4] was ~20 and the “AGA mRNA” value (AGA mRNA) was “increase in the AGA mRNA in control fibroblasts”.
With `Cn1c(=O)c2c(ncn2CC2OCCO2)n(C)c1=O` [doxofylline, 7-(1,3-dioxolan-2-ylmethyl)-1,3-dimethylpurine-2,6-dione] the luciferase activity [1] was “failed to do so”, the luciferase activity [2, 5] was “significantly increased luciferase activity” and the “splicing of the AGA minigene / variant (summary statement)” value [2] was “consistently failed to exert any significant effects”. The “changes in the splicing (correctly spliced product)” value [4] was “did not produce significant changes in the splicing”.
For `c1coc(CNc2ncnc3[nH]cnc23)c1` [kinetin], the luciferase activity ([2]; kinetin, lower concentrations (from 10 µM, below 100 µM), 24 h) was “only minor effects”, the “splicing of the AGA minigene / variant (summary statement)” value [2] was “no systematic positive effect” and the “endogenous AGA mRNA with exon 2” value ([3]; kinetin 50 µM) was “no significant increase”.
With `O=c1cc(-c2ccc(O)c(O)c2)oc2cc(O)cc(O)c12` [luteolin, 3',4',5,7-tetrahydroxyflavone] the AGA activity (AGA activity) was “significant increase in the AGA activity”, the “increase in luciferase activity” value ([2]; 25 µM luteolin, 24 h, most efficient concentration) was 5-6 fold and the luciferase activity ([2]; all luteolin concentrations, 10 µM - 50 µM, 24 h) was “significant increase in luciferase activity”. The “luciferase expression in Western blot” value ([2]; lysates of the luteolin/kinetin luciferase assay) was “strong luciferase expression” and the fold induction at 25 µM ([3]; Homo sapiens, Fibroblast, luteolin 25 µM, read-out: increase of endogenous AGA mRNA with exon 2) was ~2.5.
For `CC(=O)CCCCn1c(=O)c2c(ncn2C)n(C)c1=O` [pentoxifylline, 3,7-dimethyl-1-(5-oxohexyl) xanthine], the luciferase activity [1] was “significantly increased the luciferase activity”, the luciferase activity [2, 5] was “significantly increased luciferase activity” and the fold induction at 7500 µM [4] was 5 to 10.
`Cn1cnc2c1c(=O)[nH]c(=O)n2C` [theobromine, 3,7-dimethylxanthine] was tested, and the luciferase activity [1] was “failed to do so”, the luciferase activity ([2]; four concentrations 1 mM - 7.5 mM, 24 h, compared to untreated cells) was “non-significant changes” and the “changes in the splicing (correctly spliced product)” value [4] was “did not produce significant changes in the splicing”.
`Cn1c(=O)c2[nH]cnc2n(C)c1=O` [theophylline, 1,3-dimethylxanthine] was tested, and the luciferase readout [1] was “significant, dose dependent increase in the luciferase readout”, the luciferase activity [2, 5] was “significantly increased luciferase activity” and the fold induction at 7500 µM [4] was 5 to 10.
